In patent publication US20110178171A1, “COMPOUNDS FOR CANCER THERAPY” (China Medical University, priority 2010, published 2011):

System: AR
Assay: RT-PCR analysis of AR expression
Type: cell-based, human
Procedure: Total RNA from LNCaP, PC3, 3T3 cells was isolated as described above. cDNA was synthesized by reverse transcription of 2 μg of total RNA using oligo(dT)12-18 and SuperScript II RNA reverse transcriptase (Invitrogen). The cDNA was then used as the template to amplify the corresponding DNA fragments by PCR using two sets of synthetic oligonucleotide primers. DNA amplification was performed by PCR with the Thermocycler 2400 (PerkinElmer Life and Analytical Sciences, Boston, Mass.) using the following parameters: 35 cycles of denaturing at 95° C. for 1 min, annealing at 60° C. for 1 min, and extension at 72° C. for 2 min. Primers used for the AR PCR amplifications are (F): 5′-ATGGTGAGCAGAGTGCCCTA-3′ (SEQ ID NO: 1) (R): 5′-GTGGTGCTGGAAGCCTCTCCT-3′ (SEQ ID NO: 2) PSA (F) 5′-GGTGACCAAGTTCATGCTGTG-3′ (SEQ ID NO: 3) (R) 5′-GTGTCCTTGATCCACTTCCG-3′ (SEQ ID NO: 4) products were separated on 2% agarose gels, stained with ethidium bromide, and visualized using the Fluor Chem imaging system (Alpha InnoTech, San Leandro, Calif.), and levels of glyceraldehyde-3-phosphate dehydrogenase were used as the control.
RT-PCR was conducted to examine the effect of Z-K8 on several human cancer cells. Briefly, the cells were treated with Z-K8 (0.5 μM to 2 μM) or Luteolin (as a positive control) for 24 h. […]

In the case of `COc1cc(/C=C2\C(=O)OCC2Cc2ccc3c(c2)OCO3)cc(OC)c1OC` (racemic) [Z-K8, Racemic (Z)-β-(3′,4′-Methylenedioxybenzyl)-α-(3′,4′,5′-trimethoxybenzylidene)-γ-butyrolactone], the “AR expression over time (RT-PCR)” value (LNCaP cells, 1 μM, different times (FIG. 3B)) is reported as “decreased AR expression in a time-dependent manner” and the “AR expression (RT-PCR)” value (human cancer cells, 0.5 μM to 2 μM, 24 h, dose-dependent (FIG. 3A)) is reported as “down regulated”.
